According to PMC4452296, “Comparison of Paeoniflorin and Albiflorin on Human CYP3A4 and CYP2D6” (Evidence-based Complementary and Alternative Medicine : eCAM, 2015):

What was measured:
CYP3A4 = CYP3A4 (Homo sapiens, UniProt P08684); assay: biochemical
CYP2D6 = CYP2D6 (Homo sapiens, UniProt P10635); assay: biochemical
Sequence of CYP2D6 (P10635 whole entry): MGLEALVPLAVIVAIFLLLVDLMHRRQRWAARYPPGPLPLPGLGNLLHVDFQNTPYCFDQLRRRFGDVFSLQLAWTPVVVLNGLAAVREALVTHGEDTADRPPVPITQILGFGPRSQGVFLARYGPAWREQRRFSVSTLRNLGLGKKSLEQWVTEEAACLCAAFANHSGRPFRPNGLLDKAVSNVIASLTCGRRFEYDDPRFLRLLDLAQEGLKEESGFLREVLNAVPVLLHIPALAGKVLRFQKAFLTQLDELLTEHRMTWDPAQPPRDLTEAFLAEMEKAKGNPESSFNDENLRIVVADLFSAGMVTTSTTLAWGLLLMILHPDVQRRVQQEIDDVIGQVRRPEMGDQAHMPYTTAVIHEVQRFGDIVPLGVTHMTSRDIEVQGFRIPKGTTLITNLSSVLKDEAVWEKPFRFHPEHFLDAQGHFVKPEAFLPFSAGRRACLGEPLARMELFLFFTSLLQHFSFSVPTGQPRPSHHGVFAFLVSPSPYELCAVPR

Sequence of CYP3A4 (P08684 2-503): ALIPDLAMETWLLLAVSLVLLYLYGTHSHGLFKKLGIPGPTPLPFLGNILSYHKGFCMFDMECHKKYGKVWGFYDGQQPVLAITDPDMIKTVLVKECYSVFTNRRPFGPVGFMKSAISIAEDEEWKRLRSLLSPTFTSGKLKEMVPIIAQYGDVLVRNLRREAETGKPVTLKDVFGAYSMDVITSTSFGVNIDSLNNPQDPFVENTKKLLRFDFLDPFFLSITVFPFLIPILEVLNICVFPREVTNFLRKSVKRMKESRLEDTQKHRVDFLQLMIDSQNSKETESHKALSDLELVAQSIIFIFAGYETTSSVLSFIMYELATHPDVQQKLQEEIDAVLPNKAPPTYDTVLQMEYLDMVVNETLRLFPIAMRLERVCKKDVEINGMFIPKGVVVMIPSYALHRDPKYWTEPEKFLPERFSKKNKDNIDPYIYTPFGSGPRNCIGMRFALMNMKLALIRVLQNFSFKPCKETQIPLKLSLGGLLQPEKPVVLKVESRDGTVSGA

| Compound | IC50 (CYP3A4) [mM] | IC50 (CYP2D6) [mM] |
| --- | --- | --- |
| CC12CC(O)C3CC1(O[C@@H]1O[C@H](CO)[C@@H](O)[C@H](O)[C@H]1O)C3(COC(=O)c1ccccc1)C(=O)O2 (stereo partly shown) [albiflorin] | 11.4 | 14.4 |
| C[C@@]12C[C@@]3(O)O[C@@H](O1)[C@]1(COC(=O)c4ccccc4)[C@H]3C[C@@]12O[C@@H]1O[C@H](CO)[C@@H](O)[C@H](O)[C@H]1O [paeoniflorin] | 4.79 | 12.7 |
